Test results: ChEMBL document CHEMBL3588811, “Boehmenan, a lignan from Hibiscus ficulneus, showed Wnt signal inhibitory activity” (Bioorg Med Chem Lett, 2015)
The source made the active and inactive calls. No cut-off for these calls is given here.

Tests used:
HEK293 [1] = experiment: Reduction in c-myc level in human HEK293 cell nucleus stably transfected with TOP reporter gene at 1 to 20 uM after 24 hrs by Western blot analysis; assay type: functional, cell-based
HEK293 [2] = experiment: Inhibition of Wnt/beta-catenin signaling in HEK293 cells stably transfected with TOP reporter gene assessed as TCF/beta-catenin transcriptional activity after 24 hrs by TOP activity/luciferase reporter gene assay; assay type: cell-based; details: Homo sapiens; for IC50: HEK293, 24 h
HEK293 [3] = experiment: Inhibition of Wnt/beta-catenin signaling in HEK293 cells stably transfected with FOP reporter gene assessed as TCF/beta-catenin transcriptional activity after 24 hrs by FOP activity/luciferase reporter gene assay; assay type: cell-based; details: Homo sapiens
[4] = Cytotoxicity against human Wnt-dependent DLD1 cells after 24 hrs by fluorometric microculture cytotoxicity assay; assay type: functional, cell-based; details: DLD-1, 24 h
HEK293 [5] = experiment: Cytotoxicity against human HEK293 cells after 24 hrs by fluorometric microculture cytotoxicity assay; assay type: cell-based; details: HEK293, 24 h
RKO = experiment: Cytotoxicity against human Wnt-independent RKO cells after 24 hrs by fluorometric microculture cytotoxicity assay; assay type: functional, cell-based
HEK293 [6] = experiment: Reduction in beta-catenin level in human HEK293 cell nucleus stably transfected with TOP reporter gene at 1 to 20 uM after 24 hrs by Western blot analysis; assay type: functional, cell-based
HEK293 [7] = experiment: Reduction in beta-catenin level in human HEK293 cell cytosol stably transfected with TOP reporter gene at 1 to 20 uM after 24 hrs by Western blot analysis; assay type: functional, cell-based
HCT-116 = experiment: Cytotoxicity against human Wnt-dependent HCT116 cells after 24 hrs by fluorometric microculture cytotoxicity assay; assay type: functional, cell-based; details: HCT-116, 24 h
HEK293 [8] = experiment: Reduction in beta-catenin level in human HEK293 cell nucleus stably transfected with TOP reporter gene at 20 uM after 24 hrs by Western blot analysis in presence of 1 uM MG132; assay type: functional, cell-based
SW480 = experiment: Cytotoxicity against human Wnt-dependent SW480 cells after 24 hrs by fluorometric microculture cytotoxicity assay; assay type: functional, cell-based; details: SW480, 24 h

SMILES | inhibition (HEK293 [1]) | inhibition (HEK293 [2]) | IC50 (HEK293 [2]) | Activity (HEK293 [3]) | IC50 [4] | IC50 (HEK293 [5]) | IC50 (RKO) | inhibition (HEK293 [6]) | inhibition (HEK293 [7]) | IC50 (HCT-116) | inhibition (HEK293 [8]) | IC50 (SW480)
COc1cc(/C=C/C(=O)OCCCc2cc(OC)c3c(c2)[C@@H](COC(=O)/C=C/c2ccc(O)c(OC)c2)[C@H](c2ccc(O)c(OC)c2)O3)ccc1O | Active | Dose-dependent effect | 1 µM | inactive | > 40 µM | 30.3 µM | 25.4 µM | Active | Active | > 22.8 µM | inactive | > 40 µM
COc1cc(/C=C/C(=O)OCCCc2ccc(O[C@@H](COC(=O)/C=C/c3ccc(O)c(OC)c3)[C@@H](O)c3ccc(O)c(OC)c3)c(O)c2)ccc1O | – | Dose-dependent effect | 4.5 µM | inactive | > 40 µM | 24.2 µM | 23 µM | – | – | > 39 µM | – | > 40 µM
CC1(C)CC[C@]2(C(=O)O)CC[C@]3(COC(=O)/C=C/c4ccc(O)c(O)c4)C(=CC[C@@H]4[C@@]5(C)CC[C@H](OC(=O)/C=C/c6ccc(O)c(O)c6)C(C)(C)[C@@H]5CC[C@]43C)[C@@H]2C1 | – | – | 14.8 µM | – | > 40 µM | 29.3 µM | > 40 µM | – | – | > 40 µM | – | > 40 µM
COc1cc(/C=C/C(=O)OCCCc2cc(OC)c3c(c2)[C@@H](COC(=O)/C=C/c2ccc(O)c(OC)c2)[C@H](c2cc(OC)c(O)c(OC)c2)O3)ccc1O | – | Dose-dependent effect | 1.9 µM | inactive | > 40 µM | 36.1 µM | > 40 µM | – | – | > 40 µM | – | > 40 µM
COc1cc(/C=C/C(=O)OCCCc2ccc(O[C@@H](COC(=O)/C=C/c3ccc(O)c(OC)c3)[C@@H](O)c3ccc(O)c(OC)c3)c(OC)c2)ccc1O (relative stereo) | – | Dose-dependent effect | 6.3 µM | inactive | > 40 µM | 26.4 µM | 36.1 µM | – | – | > 40 µM | – | > 40 µM
